Measurements from publication PMC8858294, “Impact of distant peptide substrate residues on enzymatic activity of SlyD” (Cellular and Molecular Life Sciences: CMLS, 2022).
Ends that are not written are not given here.

Legend:
SlyD^WT = assay: Label-free 1H NMR lineshape prolyl isomerase activity assay with SlyD^WT; assay type: biochemical, Thermus thermophilus; details: for kcat/KM (SlyD^WT): 1H NMR lineshape analysis, 100 µM peptide, 0 to 6 µM enzyme, 25 °C, 20 mM HEPES, 100 mM NaCl, pH 7.5, linear regression of exchange rate vs enzyme concentration, technical triplicates, error one standard deviation
Description: (§1) ^1H NMR spectra of 100 µM peptide samples in 20 mM HEPES, 100 mM NaCl, pH 7.5 were acquired on a Bruker Avance III NMR-spectrometer at 25 °C and different concentrations of enzyme (0 to 6 µM). Samples contained 10% (v/v) D2O and 0.5 mM TCEP. Spectra have been corrected by subtracting identically measured and processed spectra of enzyme only samples, in order to rule out any influence of signals from the enzymes. Spectra were processed using Topspin (Bruker, Inc) and analyzed in MATLAB (mathworks). […] The obtained relative line broadening of the cis and trans signals of methyl group I, is caused by chemical exchange between the two forms and depends on the population of the cis and trans forms, their chemical shift difference (which are both known from experiments without enzyme) and the apparent exchange rate which was derived from the fit. Errors in the fitted parameters were estimated using Monte-Carlo simulations; the reported errors correspond to one standard deviation.
(§2) Tetrapeptides terminally fused with fluorophores sensitive to proline isomerization have been routinely used to study the activity of peptidyl-prolyl cis–trans isomerases, such as SlyD [11]. […] Studying longer peptides usually requires 2D NMR spectroscopy, often in combination with ^13C labeling, in order to detect separate signals for the cis and trans state. […] This approach, which was initially developed for chemically modified tetrapeptides, relies only on the interaction of a leucine residue upstream of the proline (i − 1) and a phenylalanine residue downstream of the proline (i + 1). The different orientations of the leucine and phenylalanine residues in cis and trans proline conformations give rise to different signals for one of the leucine methyl groups (I), while the other methyl group (II) is mostly unaffected (Fig. 2A). At the same time, the impact of the proline cis/trans conformation on the leucine methyl groups is not dependent on the length of the peptide. The only requirement for the design of the peptide substrate is the absence of additional leucine, isoleucine or valine residues that could interfere with the NMR signals of interest. The linewidth of the signals is affected by the enzymatic turnover rate, which itself is dependent on the enzyme concentration (Fig. 2A). The enzymatic activity (kcat/KM) is then determined by the linear regression of the determined rate at various enzyme concentrations at a fixed substrate concentration below KM (Fig. 2B and SI Fig. 1).

SlyDΔIF [1] = target: T1, SlyDΔIF (Thermus thermophilus, UniProt Q5SLE7); assay: Label-free 1H NMR lineshape prolyl isomerase activity assay with SlyDΔIF; assay type: biochemical; details: 1H NMR lineshape analysis, 100 µM peptide, 0 to 6 µM enzyme, 25 °C, 20 mM HEPES, 100 mM NaCl, pH 7.5; linear regression of exchange rate vs enzyme concentration; technical triplicates; error one standard deviation
Description: as §1, §2

SlyDΔIF [2] = target: T1, SlyDΔIF; assay: ITC, peptide binding to SlyDΔIF (one binding site model); details: read-out: KD (SlyDΔIF), 1.2 mM peptide into 50 µM SlyD, 25 °C, 20 mM HEPES pH 7.5, 100 mM NaCl, ± error of fit
Description: (§3) ITC was measured using MicroCal VP-ITC calorimeter (Malvern) and analysed with MicroCal ITC-ORIGIN Analysis Software. First 1 × 3 µl and then 42 × 6.5 µl of 1.2 mM peptides dissolved in 20 mM HEPES (pH 7.5) and 100 mM NaCl were injected every 240 s from the syringe into the cell containing 50 µM SlyD at 25 °C. The resulting isotherms were fitted with one binding site model in case of SlyDΔIF construct and with two binding site model in case of the wild-type SlyD.

[3] = target: T2, SlyD^WT FKBP (PPIase) domain (Thermus thermophilus, UniProt Q5SLE7); assay: biochemical; assay type: binding
T2 sequence (Q5SLE7 1-149): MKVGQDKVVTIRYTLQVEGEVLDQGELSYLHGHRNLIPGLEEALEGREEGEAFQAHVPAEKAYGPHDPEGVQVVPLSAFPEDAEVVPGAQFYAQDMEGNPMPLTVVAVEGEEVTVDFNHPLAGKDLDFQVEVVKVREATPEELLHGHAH
Description: as §3

[4] = target: T3, SlyD^WT IF (chaperone) domain (Thermus thermophilus, UniProt Q5SLE7); assay: biochemical; assay type: binding
T3 sequence (Q5SLE7 70-117): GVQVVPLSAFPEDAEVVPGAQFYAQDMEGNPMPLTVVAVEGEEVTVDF
Description: as §3

[5] = test system: SlyD^WT FKBP (PPIase) domain; assay: biochemical; assay type: binding, Thermus thermophilus; details: ITC, SlyD^WT and SlyDΔIF
Description: as §3

Substance	kcat/KM (SlyD^WT) (SlyD^WT) [M⁻¹ s⁻¹]	kcat/KM (SlyDΔIF) (SlyDΔIF [1]) [M⁻¹ s⁻¹]	Kd (SlyDΔIF [2]) [µM]	Kd [3] [µM]	Kd [4] [µM]	reduction in affinity compared to the psWT peptide [5]	increase of activity by the chaperone domain (factor, SlyD^WT vs SlyDΔIF) (SlyD^WT; 15-residue peptide at 100 µM, chaperone domain occupied)
R2A: psWT peptide substrate with mutation R2A (TAYWNAKMLPFAFGA)	5.1e+06 ± 300000	1.3e+06 ± 200000	–	–	–	–	–
TRYWNAKALPFAFGA [M8A]	7.7e+06 ± 900000	3.1e+06 ± 100000	19.4 ± 1	6 ± 0.1	0.24 ± 0.01	–	–
TRYANAKMLPFAFGA [W4A]	2e+06 ± 200000	1.1e+06 ± 200000	–	8.4 ± 0.4	0.75 ± 0.06	–	–
H-TRYWNAKMLPFAKGA-OH [F13K]	3.4e+06 ± 100000	2.3e+06 ± 300000	20 ± 0.7	5.2 ± 0.2	0.11 ± 0.02	–	–
H-TRYKNAKMLPFAFGA-OH [W4K]	2.2e+06 ± 300000	3.5e+06 ± 700000	12.6 ± 0.8	3.2 ± 0.3	0.21 ± 0.01	–	–
H-TRYWNAKMLPFAEGA-OH [F13E]	7e+06 ± 600000	100000 ± 100000	36.1 ± 0.8	10.4 ± 0.5	1.15 ± 0.01	up to fivefold	–
H-TRYENAKMLPFAFGA-OH [W4E]	4.4e+06 ± 200000	900000 ± 200000	–	13.9 ± 0.9	0.86 ± 0.02	up to fivefold	–
H-TRYWNAKMLPFAFGL-OH [A15L]	–	–	14.8 ± 0.2	4.1 ± 0.1	0.16 ± 0.02	–	–
TRAWNAKMLPFAFGA [Y3A]	3.9e+06 ± 400000	2.5e+06 ± 300000	51.5 ± 8.6	17.3 ± 1.3	0.72 ± 0.1	–	–
TRYWNAKMLPFAAGA [F13A]	3.1e+06 ± 100000	400000 ± 100000	22.7 ± 0.6	6.4 ± 0.3	0.38 ± 0.02	–	–
H-TRYWNAKMLPFAFMA-OH [G14M]	–	–	8.3 ± 0.5	2.2 ± 0.1	0.1 ± 0.01	–	–
TRYWNAKMLPFAFGA [psWT]	4.9e+06 ± 300000	2.2e+06 ± 300000	15.6 ± 0.2	3.5 ± 0.1	0.22 ± 0.01	–	2.2
